Entries after “also recorded” stand apart in the source; their conditions may differ.
Legend:
Assay type in all cases: biochemical
α-synuclein = α-synuclein (Homo sapiens, UniProt P37840); experiment: Kinetic thioflavin T aggregation assay of ASYN in TBS; conditions: for increase in ThT signal compared to ASYN only: timeframe of the assay 48 h
Protocol: (§1) Kinetic ThT assays were performed by adding ThT directly to the sample at time=0. A 2.5 mM ThT stock solution was made up in the buffer that was used in the aggregation experiment, filtered through a […] Millex GV filter and diluted to 62.5 μM by adding 5 μl to final sample volume of 200 μl in a 96-well polypropylene plate. The increase in fluorescence over time as a result of amyloid formation was measured in a Biotek Synergy HT plate reader at 37° C. with shaking. Cut off filters were used for exitation at 440/30 nm and emission at 485/20 nm. Readings were every 10 minutes with shaking for 500 seconds before each reading.
Aggregation assays were carried out with 50 μM ASYN and 100 μM inhibitor with 50 mM tris and 150 mM NaCl and 20 μM Thioflavin T. The reaction volume was 200 μL. Each reaction was set up in a 96 well polypropylene plate with ASYN only and buffer only controls. The reactions were incubated at 37 C with shaking for 48 hours and aggregation was monitored by reading thioflavin T fluorescence as described above.
The aggregation inhibition properties of ZP-0154 and ZP-0155 were tested in kinetic ThT assays in TBS as described above.
All peptides were tested for inhibition of ASYN aggregation in TBS as described above and the kinetic traces were fit using Zyentiafit software which fits the data to a Sigmoidal function f(x)=k+A/(1+exp(−b(t−t0))) from which the lag time, rate of aggregation and total change in ThT fluorescence may be calculated.
A kinetic thioflavin T assay to measure aggregation was set up with 50 uM α-synuclein in TBS and a molar ratio of 1:2 of α-synuclein:inhibitor). Reactions were incubated for 48 hours at 37° C. with shaking and thioflavin T fluorescence was measured every 10 minutes. The kinetic traces were fit using Zyentiafit software which fits the data to a Sigmoidal function f(x)=k+A/(1+exp(−b(t−t0))) from which the lag time, rate of aggregation and total change in ThT fluorescence may be calculated.

ASYN [1] = biological target: T1, ASYN (Homo sapiens, UniProt P37840); experiment: Kinetic ThT aggregation assay in 25 mM Tris-Cl pH 7.4 with 100 mg/ml PEG 3350; conditions: for decrease in the endpoint ThT reading: Tris-Cl pH 7.4, 48 hours, average over the named inhibitors; for inhibition compared to ASYN alone: both buffer conditions (Tris-Cl pH 7.4 and PBS); for inhibition compared to ASYN alone / ThT signal compared to ASYN (FIG. 11): 50 μM ASYN, 100 μM inhibitor; for ThT signal compared to ASYN (FIG. 11): endpoint, Tris-Cl pH 7.4 at 37° C. with 100 mg/ml PEG 3350
Protocol: as §1
For compounds ZP-0089 to ZP-0094, a kinetic ThT experiment was performed in 25 mM Tris-Cl at 37° C. to test the inhibition properties of ZP-0089 to ZP-0094 in Tris-Cl pH 7.4. Each 200 μl sample on the 96 well-plate contained 50 μM ASYN, 100 μM inhibitor and 100 mg/ml PEG along with buffer only and ASYN only controls. Samples were measured in triplicate. ThT fluorescence over time was monitored for 48 hours.

ASYN [2] = biological target: T1, ASYN; experiment: Kinetic ThT aggregation assay in PBS pH 7.4; conditions: for endpoint ThT fluorescence / lag phase / lag time / rate of amyloid formation: FIG. 13, PBS, asyn:inhibitor 1:2; for ThT signal compared to ASYN (FIG. 12): endpoint, legend prints Tris-Cl pH 7.4 at 37° C. with 100 mg/ml PEG 3350
Protocol: The molar ratio of asyn:inhibitor is 1:2. For both, ASYN aggregation inhibition is observed as an increased lag time along with decreased endpoint ThT fluorescence.
as §1
For compounds ZP-0089 to ZP-0094, a kinetic experiment was performed to test the inhibition properties in PBS pH 7.4 as described above. Samples were assayed in triplicate and each sample contained 50 μl of 200 μM ASYN and 50 μl of 400 μM inhibitor was added to 100 μl PBS in a well and mixed to yield a 200 μl sample volume containing 50 μM ASYN and 100 μM inhibitor. Control wells contained either buffer only or ASYN only.

[3] = Table 4 interactomer peptides, 50 μM ASYN, 100 μM inhibitor, 37 C, 48 hours, sigmoidal fit
[4] = Table 5 structure stabilising peptides, 50 uM α-synuclein, 1:2 α-synuclein:inhibitor, 48 hours, 37° C., relative to α-synuclein only

Row | Substance | % decrease in ThT fluorescence (α-synuclein; [3]) | % decrease in rate of aggregation (α-synuclein; [3]) | % increase in Lag phase (α-synuclein; [3]) | other results
1 | Ac-drysvli-NH2 [ZP-0214] | 20.4% | 4.8% | −12.6% | 
2 | Ac-egkgegk-NH2 [ZP-0241] |  |  |  | % decrease in ThT fluorescence (α-synuclein; [4]): 6.1%; % decrease in rate of aggregation (α-synuclein; [4]): 10.9%; % increase in Lag phase (α-synuclein; [4]): 16.6%
3 | Ac-ekysvli-NH2 [ZP-0213] | 25.6% | 12.9% | 29.4% | 
4 | Ac-hhtevy-NH2 [ZP-0193] | 8.7% | −15.8% | 31.4% | 
5 | Ac-hhtivk-NH2 [ZP-0179] | 0.6% | −0.6% | 30.4% | 
6 | Ac-hhtivv-NH2 [ZP-0175] | 21.9% | 16.8% | 89.7% | 
7 | Ac-hhtlva-NH2 [ZP-0181] | 22.8% | −1.2% | 29.4% | 
8 | Ac-hhtlvv-NH2 [ZP-0186] | 30.7% | 29.7% | 16.1% | 
9 | Ac-hhttvy-NH2 [ZP-0194] | 11.6% | 7.7% | 38.8% | 
10 | Ac-hhtvva-NH2 [ZP-0180] | 19.8% | 18.4% | 30.3% | 
11 | Ac-hhveva-NH2 [ZP-0162] | 6.3% | 6.6% | 33.4% | 
12 | Ac-hhviva-NH2 [ZP-0158] | 15.1% | 18.4% | 32.5% | 
13 | Ac-hhvivp-NH2 [ZP-0168] | −8.6% | −5.4% | 29.8% | 
14 | Ac-hhvivt-NH2 [ZP-0170] | 24.5% | 29.3% | 29.4% | 
15 | Ac-hhvivv-NH2 [ZP-0169] | −0.5% | −13.3% | 26.1% | 
16 | Ac-hhvivw-NH2 [ZP-0172] | −1.7% | 6.9% | 28.1% | 
17 | Ac-hhvivy-NH2 [ZP-0171] | 13.9% | 13.2% | 43.6% | 
18 | Ac-hhvkva-NH2 [ZP-0161] | −5.9% | 2.3% | 19.7% | 
19 | Ac-hhvlva-NH2 [ZP-0160] | 8.8% | 10.5% | 36.5% | 
20 | Ac-hhvvva-NH2 [ZP-0159] | 19.8% | 18.6% | 36.6% | 
21 | Ac-hpviva-NH2 [ZP-0164] | 3.7% | −2.3% | 43.0% | 
22 | Ac-kgegk-NH2 [ZP-0231] |  |  |  | % decrease in ThT fluorescence (α-synuclein; [4]): 4.3%; % decrease in rate of aggregation (α-synuclein; [4]): 2.7%; % increase in Lag phase (α-synuclein; [4]): 11.2%

Row | Substance | % decrease in ThT fluorescence (α-synuclein; [3]) | % decrease in rate of aggregation (α-synuclein; [3]) | % increase in Lag phase (α-synuclein; [3]) | other results
23 | Ac-qpsvli-NH2 [ZP-0207] | 5.5% | 3.6% | 29.7% | 
24 | Ac-qykvli-NH2 [ZP-0202] | 53.5% | 54.5% | −28.8% | 
25 | Ac-qypvli-NH2 [ZP-0206] | 3.3% | 8.4% | 25.9% | 
26 | Ac-qyspli-NH2 [ZP-0205] | 16.6% | −11.9% | 30.6% | 
27 | Ac-qysvpi-NH2 [ZP-0204] | 1.4% | −5.6% | 23.6% | 
28 | Ac-rdr-NH2 [ZP-0240] |  |  |  | % decrease in ThT fluorescence (α-synuclein; [4]): 18.5%; % decrease in rate of aggregation (α-synuclein; [4]): −0.6%; % increase in Lag phase (α-synuclein; [4]): 23.4%; endpoint thioflavin T fluorescence (in words) (α-synuclein; structure stabilising peptides, 48 hours): significant decrease
29 | Ac-rgdgd-NH2 [ZP-0247] |  |  |  | % decrease in ThT fluorescence (α-synuclein; [4]): 12.2%; % decrease in rate of aggregation (α-synuclein; [4]): 6.7%; % increase in Lag phase (α-synuclein; [4]): 10.7%
30 | Ac-rysvli-NH2 [ZP-0212] | 51.1% | 44.9% | −14.4% | 
31 | Ac-sgvylvg-COOH [ZP-0091] |  |  |  | decrease in the endpoint ThT reading (ASYN [1]): 18±2%
32 | L-DOPA-gpvntvq-NH2 [ZP-0090] |  |  |  | inhibition compared to ASYN alone (ASYN [1]): > 30%; ThT signal compared to ASYN (FIG. 11) (ASYN [1]): significantly decreased; endpoint ThT fluorescence (ASYN [2]): decreased; lag phase / lag time (ASYN [2]): increased; rate of amyloid formation (ASYN [2]): decreased; ThT signal compared to ASYN (FIG. 12) (ASYN [2]): significantly decreased
33 | L-DOPA-sgvylvg-NH2 [ZP-0089] |  |  |  | inhibition compared to ASYN alone (ASYN [1]): > 60%; ThT signal compared to ASYN (FIG. 11) (ASYN [1]): significantly decreased; endpoint ThT fluorescence (ASYN [2]): decreased; lag phase / lag time (ASYN [2]): large increase; also recorded: increased; rate of amyloid formation (ASYN [2]): decreased; ThT signal compared to ASYN (FIG. 12) (ASYN [2]): significantly decreased
34 | NH2-sgvylvg-COOH [ZP-0092] |  |  |  | decrease in the endpoint ThT reading (ASYN [1]): 18±2%
35 | NH2-sgvylvg-NH2 [ZP-0094] |  |  |  | decrease in the endpoint ThT reading (ASYN [1]): 18±2%
36 | NH3-pysvli-NH2 [ZP-0228] | 40.8% | 46.2% | 38.2% | 
37 | NH3-qykvli-NH2 [ZP-0222] | 42.3% | 34.3% | 7.7% | 
38 | NH3-qysvli-NH2 [ZP-0215] | 27.6% | 17.5% | 3.1% | 
39 | NH3-qysvlt-NH2 [ZP-0230] | 10.9% | 15.9% | 32.4% | 
40 | NH3-qysvlv-NH2 [ZP-0229] | 17.8% | 24.3% | 33.5% | 
41 | NH3-qytvli-NH2 [ZP-0221] | 24.7% | 22.8% | −22.4% | 
42 | NMP-NMP-NMP-NMP-kvfgtaa-NH2 [ZP-0154] |  |  |  | increase in ThT signal compared to ASYN only (α-synuclein; 50 μM ASYN, 100 μM inhibitor): No significant increase
43 | NMP-NMP-NMP-kvfgtaa-NH2 [ZP-0155] |  |  |  | increase in ThT signal compared to ASYN only (α-synuclein; 50 μM ASYN, 100 μM inhibitor): No significant increase

— US20090286745A1, “INHIBITION OF ALPHA-SYNUCLEIN AGGREGATION” (Zapaloid Limited, priority 2006, published 2009)
